PMC12735945, “Synthetic Linear Lipopeptides and Lipopeptoids Induce Apoptosis and Oxidative Stress: In Vitro Cytotoxicity and SAR Evaluation Against Cancer Cell Lines” (Pharmaceuticals, 2025)
Where two headings read alike, the source gives them in different places. Starred links: 1 amine or outer side, 2 acyl side, 3 side chain; linkers in the order of their positions; H or OH if unused. Positions of bridges follow the written chain, without caps; N, C: chain ends. Non-standard residues stand in square brackets, D forms with d. Residues, ends and D or L forms follow the SMILES beside them. *: point of attachment. X1 = CC(C)CCCCCCCCC[C@H](CC(=O)[*:1])O[*:2]; Heptadecanoyl = CCCCCCCCCCCCCCCCC(=O)*; Stearoyl = CCCCCCCCCCCCCCCCCC(=O)*; Myristoyl = CCCCCCCCCCCCCC(=O)*; Boc = CC(C)(C)OC(=O)*; Nlys = NCCCCNCC(=O)O

Experiments:
[1] = test system: HeLa (human cervical adenocarcinoma) cells; type: cell-based; settings: 72 h
Protocol: (§1) The MTT and CV assays were employed for initial cytotoxicity screening and determination of half-maximal inhibitory concentrations (IC50), as described previously. Cells were seeded in 96-well plates and incubated for 24 h prior to treatment. B16F10, HT-29, HeLa, and NIH3T3 cells were seeded at a density of 2000 cells per well, while PC3 cells were seeded at 6000 cells per well due to their slower proliferation rate. For fast screening, cancer cells were treated with two concentrations of each LLP (0.1 µM and 10 µM) for 72 h in triplicate, with four replicates in each experiment. […] Digitonin was used as a positive control in all assays. Following treatment, absorbance was measured using a microplate reader (SpectraMax, Molecular Devices, San Jose, CA, USA) at 540 nm, with a reference wavelength of 670 nm. Cell viability was calculated as a percentage of untreated control wells.

B16F10 cells [2] = experiment: ROS/RNS production (DHR staining, flow cytometry); type: cell-based, mouse; settings: B16F10, IC50 concentration, 72 h, versus untreated control
Protocol: (§2) To assess intracellular ROS/RNS levels, B16F10 cells were first stained with 1 µM DHR for 10 min at 37 °C. Following staining, cells were treated with LLPs 17, 53 or 58 at their IC50 concentrations for 72 h. After treatment, cells were trypsinized, washed with PBS, and analyzed by flow cytometry to quantify DHR fluorescence, indicative of ROS/RNS production. For NO detection, B16F10 cells were treated under identical conditions using the same LLP concentrations. After 72 h, cells were incubated with 5 µM DAF-FM diacetate in RPMI 1640 supplemented with 10% FCS for 1 h at 37 °C. The stain was then deactivated by incubation for 15 min with a serum-free medium. Finally, cells were detached, washed with PBS, and subjected to flow cytometric analysis to assess intracellular NO levels.

B16F10 cells [3] = experiment: CFSE-based cell proliferation assay; design: species or system mouse; settings: B16F10, IC50 concentration, 72 h
Protocol: B16F10 cells were stained with 1 µM carboxyfluorescein succinimidyl ester (CFSE) for 10 min at 37 °C, followed by treatment with compounds 17, 53, or 57 at IC50 concentrations for 72 h. After incubation, cells were washed, trypsinized, and analyzed by flow cytometry to assess cell division based on CFSE fluorescence intensity.

caspases in B16F10 cells = experiment: ApoStat caspase detection assay; type: cell-based, mouse; settings: B16F10, IC50 concentration, 72 h
Protocol: B16F10 cells were seeded in 6-well plates at a density of 1 × 10^5 cells per well and treated for 72 h with IC50 concentrations of selected active LLPs. Post-treatment, cells were harvested and washed with PBS. Cells were then stained with 100 μL of working ApoStat solution, prepared by diluting ApoStat reagent (FITC-VAD-FMK) in PBS containing 5% FCS (99 μL of PBS 5% FCS + 1 μL ApoStat per sample). The staining was performed for 30 min at 37 °C in the dark. Following incubation, cells were washed to remove unbound reagents and analyzed by flow cytometry using a FACSAria III system (BD Biosciences). The fluorescence intensity of FITC was measured to assess caspase production, with increased fluorescence indicating elevated caspase activity.

[4] = test system: B16F10 (mouse skin melanoma) cells; type: cell-based; settings: 72 h
Protocol: as §1

B16F10 cells [5] = experiment: NO production (DAF-FM staining, flow cytometry); type: cell-based, mouse; settings: B16F10, IC50 concentration, 72 h
Protocol: as §2

B16F10 cells [6] = experiment: Apoptosis by Annexin V-FITC/PI staining; type: cell-based, mouse; settings: B16F10, IC50 concentration, 72 h
Protocol: B16F10 melanoma cells were seeded in 6-well plates at a density of 1 × 10^5 cells/well and incubated overnight to allow for cell adherence. […] Following treatment, both floating and adherent cells were harvested and washed with PBS. The cells were then resuspended in 100 μL of Annexin V binding buffer containing 5 μL of Annexin V-FITC and 2 μL of PI per sample. Staining was performed for 15 min at 37 °C in the dark. After staining, cells were washed with PBS and analyzed using a BD FACSAria III flow cytometer (BD Biosciences) to quantify the percentages of apoptotic cells.

B16F10 cells [7] = experiment: Cell cycle analysis (DAPI staining, flow cytometry); type: cell-based, mouse; settings: 72 h
Protocol: B16F10 cells were seeded overnight in 6-well plates at a density of 1 × 10^5 cells per well and treated for 72 h with selected active LLPs either at the IC50 or 2 × IC50 concentration. Following treatment, both floating and adherent cells were collected, washed with PBS, and fixed in 70% ethanol at 4 °C overnight. Fixed cells were stained with DAPI staining solution (1 µg/mL) for 30 min at 37 °C in the dark, followed by PBS washing to remove excess dye. Flow cytometric analysis was performed using a FACSAria III instrument (BD Biosciences, Eysins, Switzerland). Histograms of cell counts versus fluorescence intensity were generated and cell cycle distribution was determined based on mean fluorescence intensity values.

[8] = test system: B16F10 (mouse skin melanoma) cells; type: cell-based; settings: 72 h; remark: listed apart in the source
Protocol: as §1

[9] = test system: HeLa (human cervical adenocarcinoma) cells; type: cell-based; settings: 72 h; remark: listed apart in the source
Protocol: as §1

[10] = test system: HT-29 (human colon adenocarcinoma) cells; type: cell-based; settings: 72 h
Protocol: as §1

[11] = test system: HT-29 (human colon adenocarcinoma) cells; type: cell-based; settings: 72 h; remark: listed apart in the source
Protocol: as §1

[12] = test system: PC3 (human prostate cancer) cells; type: cell-based; settings: 72 h
Protocol: as §1

[13] = test system: PC3 (human prostate cancer) cells; type: cell-based; settings: 72 h; remark: listed apart in the source
Protocol: as §1

[14] = test system: B16F10 (mouse skin melanoma) cells; settings: CV assay, 72 h; mean ± SD; cited from earlier work
Protocol: Table 1 IC50 value (µM) for cytotoxic LLPs (72 h, CV assay). Data represent mean ± SD from three independent biological experiments, each performed with eight technical replicates per concentration. | column: B16F10

[15] = test system: NIH3T3 mouse embryonic fibroblasts; type: cell-based; settings: 72 h
Protocol: as §1

[16] = test system: HeLa (human cervical adenocarcinoma) cells; settings: CV assay, 72 h; mean ± SD; cited from earlier work
Protocol: Table 1 IC50 value (µM) for cytotoxic LLPs (72 h, CV assay). Data represent mean ± SD from three independent biological experiments, each performed with eight technical replicates per concentration. | column: HeLa

[17] = MTT assay, mean ± SD of three independent biological experiments, read-out: IC50 HeLa
[18] = B16F10, double IC50 concentration
[19] = MTT assay, mean ± SD of three independent biological experiments, read-out: IC50 B16F10

| SMILES | IC50 [1, 17] [µM] | ROS/RNS production (B16F10 cells [2]) | cell division profile (CFSE) (B16F10 cells [3]) | caspase activation (ApoStat fluorescence) (caspases in B16F10 cells) | IC50 [4] [µM] | NO production (B16F10 cells [5]) | proportion of apoptotic cells (B16F10 cells [6]) | cells in the sub-G1 phase (B16F10 cells [7]; B16F10, IC50 concentration) | cells in the sub-G1 phase (B16F10 cells [7]; [18]) | IC50 [8] [µM] | IC50 [9] [µM] | IC50 [10] [µM] | IC50 [1] [µM] | IC50 [11] [µM] | further results |
| --- | --- | --- | --- | --- | --- | --- | --- | --- | --- | --- | --- | --- | --- | --- | --- |
| CCCCCCCCCCCCCCCC(=O)N(CCCCN=[N+]=[N-])CC(=O)NCC(=O)N(CCCCN=[N+]=[N-])CC(=O)NCC(=O)OC [Compound 55] | 15.4 ± 0.4 | – | – | – | – | – | – | – | – | – | – | – | – | – | – |
| CCCCCCCCCCCCCCCC(=O)N(CCc1ccc(O)cc1)CC(=O)NCC(=O)OC [Compound 53] | – | only slightly enhanced | notably reduced the proportion of cells undergoing successive divisions | gradual enhancement in the fluorescence signal | 8 ± 0.2 | only a slight increase | approximately 15% | approximately 20% | 50–60% | 7.7 ± 0.3 | – | – | – | – | – |
| CCCCCCCCCCCCCCCCCCC(=O)N(CCCCN=[N+]=[N-])CC(=O)NCC(=O)N(CCCCN=[N+]=[N-])CC(=O)NCC(=O)OC [Compound 58] | – | marked increase | notably reduced the proportion of cells undergoing successive divisions | clearer caspase activation was detected | 7.5 ± 0.2 | increased NO production | approximately 15% | approximately 20% | 50–60% | 7.4 ± 0.1 | 7.7 ± 0.2 | 8.7 ± 0.3 | 7.8 ± 0.3 | 9.1 ± 0.2 | – |
| CCCCCCCCCCCCCC(=O)N(CCNC(=O)OC(C)(C)C)CC(=O)NCC(=O)N(CCNC(=O)OC(C)(C)C)CC(=O)NCC(=O)OC [Compound 17] | 5.6 ± 0.3 | moderate ROS/RNS generation | notably reduced the proportion of cells undergoing successive divisions | gradual enhancement in the fluorescence signal | 5.7 ± 0.3 | increased NO production | approximately 15% | approximately 20% | 50–60% | 5.6 ± 0.4 | – | 4 ± 0.6 | – | 4.1 ± 0.8 | IC50 [12]: 4.1 ± 0.6 µM; IC50 [13]: 4 ± 0.3 µM |
| CCCCCCCCCCCCCC(=O)N(CCCCNC(=O)OC(C)(C)C)CC(=O)NCC(=O)N(CCCCNC(=O)OC(C)(C)C)CC(=O)NCC(=O)OC [Compound 47] (Myristoyl-[Nlys](Boc)G[Nlys](Boc)G-OMe) | 12.3 ± 0.8 | – | – | – | – | – | – | – | – | – | – | – | – | – | – |
| CCCCCCCCCCCCCCCC(=O)N(CCCCCCNC(=O)OC(C)(C)C)CC(=O)NCC(=O)N(CCCCCCNC(=O)OC(C)(C)C)CC(=O)NCC(=O)OC [Compound 3] | – | – | – | – | – | – | – | – | – | – | 6.6 ± 0.3 | 6.5 ± 0.6 | 6.4 ± 0.9 | 6.2 ± 0.2 | IC50 [12]: 6.1 ± 0.2 µM; IC50 [4, 19]: 6.1 ± 0.1 µM; IC50 [13]: 5.9 ± 0.1 µM |
| CCCCCCCCCCCCCCCCCCCC(=O)N(CCCCN=[N+]=[N-])CC(=O)NCC(=O)N(CCCCN=[N+]=[N-])CC(=O)NCC(=O)OC [Compound 59] | – | – | – | – | 11.5 ± 1.3 | – | – | – | – | 11.1 ± 1.2 | – | – | – | – | – |
| CC(C)CCCCCCCCC[C@@H]1CC(=O)N[C@@H](CCC(=O)O)C(=O)N[C@@H](CC(C)C)C(=O)N[C@H](CC(C)C)C(=O)N[C@@H](C(C)C)C(=O)N[C@@H](CC(=O)O)C(=O)N[C@H](CC(C)C)C(=O)N[C@@H](CC(C)C)C(=O)O1 [Surfactin, surfactin, reference compound] (EL[dL]VD[dL]L; linker N-C via X1 (inferred)) | – | – | – | – | 50.3 ± 0.6 | – | – | – | – | – | – | – | 64.9 ± 0.8 | – | IC50 [14]: 40.4 ± 0.3 µM; NIH3T3 cell viability [15]: approximately 25%; IC50 [16]: 76.2 ± 1.6 µM |
| CCCCCCCCCCCCCCCCC(=O)N(CCCCNC(=O)OC(C)(C)C)CC(=O)NCC(=O)N(CCCCNC(=O)OC(C)(C)C)CC(=O)NCC(=O)OC [Compound 45] (Heptadecanoyl-[Nlys](Boc)G[Nlys](Boc)G-OMe) | – | – | – | – | – | – | – | – | – | – | 7.9 ± 0.6 | 7.5 ± 0.1 | 8 ± 0.5 | 7.8 ± 0.9 | IC50 [4, 19]: 8 ± 0.2 µM |
| CCCCCCCCCCCCCCCCCC(=O)N(CCCCNC(=O)OC(C)(C)C)CC(=O)NCC(=O)N(CCCCNC(=O)OC(C)(C)C)CC(=O)NCC(=O)OC [Compound 46] (Stearoyl-[Nlys](Boc)G[Nlys](Boc)G-OMe) | – | – | – | – | 8.1 ± 0.1 | – | – | – | – | 8 ± 0.9 | 8 ± 0.4 | – | 8.2 ± 0.3 | – | – |
